Data taken from patent US6017878A (McGill University, priority 1994, dated 2000).
“And” between values parts separate entries of the source, which are not always exact repeats. Identical values can stand only once. “Also recorded” adds a separate entry of the source.

Columns and labels:
[1] = system: bFGF mediated neurite outgrowth in PC12 cells; assay: bFGF mediated neurite outgrowth in PC12 cells (specificity control); assay type: cell-based, rat; conditions: analog ~10 μM, 50 ng/ml bFGF
Protocol: (§1) Cells without growth factor added served as baseline, whereas cells with growth factor but without analog added were used for maximum neurite outgrowth determination. All analogs were tested in at least three separate assays from three different synthesis. Samples were coded and analysis were performed blind.
(§2) Representative results for 3 different analogs are shown. For a summary and complete list of the results from these biological tests see Table II.

[2] = system: NGF induced neurite outgrowth in PC12 cells; assay: NGF induced neurite outgrowth assay in PC12 cells; assay type: cell-based, rat; conditions: analog ~10 μM, 50 ng/ml NGF; for INHIBITION OF NEURITE OUTGROWTH (1): PC12 cells, arbitrary units by comparison with NGF dose response curves
Protocol: (§3) All cells were cultured as described. PC12 pheochromocytoma cells expressing rat p140 trkA and p75 LNGFR (American Type Culture Collection, 7th edition, 1992, Catalog of cell lines and hybridomas, R. Hay Editor, accession No. CRL 1721) were grown in DMEM supplemented with 20% Fetal Bovine Serum (FBS), 10% Horse serum, and antibiotics. PC12 cells used for experiments were grown on collagen coated dishes. The NIH-3T3 fibroblast transfectants R7 (p75 and trkA double transfectant) and E25 (trkA transfectant) (Jing, S. et al. (1992) Neuron, 9: 1067-1079; kindly provided by Dr. Mariano Barbacid, Bristol-Meyers-Squibb, NJ) were grown in RPMI media supplemented with 5% FBS and antibiotics and the appropriate drug selection.
as §1, §2
Significant inhibition is indicated by +++.

[3] = biological target: T1, E25 (trkA), trkA receptor expressing fibroblast transfectants (Homo sapiens, UniProt P04629); assay: 125I-NGF binding to E25 transfectants, with dose response and saturation studies; conditions: for effect on 125I-NGF binding to E25 cells (in words) / % INHIBITION of 125I-NGF binding, E25 (trkA): analog ~40 μM; for % INHIBITION of 125I-NGF binding, E25 (trkA): mean ±2 SEM
T1 construct: expressed in transfected cells; host or cells: NIH-3T3 mouse fibroblasts (E25), from Dr. Mariano Barbacid; Jing et al. 1992
Protocol: as §3
(§4) Assays were performed >4 times, each from at least three different synthesis (inhibitory analogs) or 1-3 times each from 2 different synthesis (non-inhibitory analogs).
(§5) Analogs were used at a concentration of ^~ 40 μM.
(§6) Data shown represents an average percent inhibition of binding ±2 standard errors of the mean (2 SEM). […] NT=not tested. (*) assayed only once.
(§7) Percent inhibition was determined by applying the following formula: [formula]
Saturation binding assays were performed with trkA receptor expressing E25 cells as described above.

PC12 cells = assay: Toxicity control: cell death of PC12 cells after culture with the compounds; assay type: cell-based, rat
[4] = biological target: T1, E25 (trkA), trkA receptor expressing fibroblast transfectants; assay: 125I-NGF binding to E25 transfectants, with dose response and saturation studies; conditions: dose response 0.4 μM to 200 μM analog, constant 200 pM 125I-NGF; read-out: IC50, inhibition of 125I-NGF binding
[5] = biological target: T2, R7 (trkA-p75), NIH-3T3 p75 and trkA double transfectant (Homo sapiens, UniProt P04629); assay: 125I-NGF binding to R7 transfectants; conditions: analog ~40 μM; for % INHIBITION of 125I-NGF binding, R7 (trkA-p75): mean ±2 SEM
T2 construct: expressed in transfected cells; host or cells: NIH-3T3 mouse fibroblasts (R7), from Dr. Mariano Barbacid; Jing et al. 1992
Protocol: as §3, §4, §5, §6, §7

PC12 (trkA-p75) = biological target: T3, PC12 (trkA-p75) (Rattus norvegicus, UniProt P35739); assay: 125I-NGF binding to PC12 cells; conditions: mean ±2 SEM
T3 construct: PC12 pheochromocytoma cells expressing rat p140 trkA and p75 LNGFR; host or cells: PC12 rat pheochromocytoma cells
Protocol: as §3
Analogs were tested for their ability to affect binding of ^125 I-NGF (73.1 μCi/μg NEN, DuPont). […] After 15 min, ^125 I-NGF was added to a final concentration of 0.4-2 nM (^~ 40,000 cpm) and the mixtures were further incubated for 40 min at 4° C. Cells were then washed in binding buffer, pelleted, and cell-associated ^125 I-NGF was determined. […] Assays were performed >4 times, each from at least three different synthesis (inhibitory analogs) or 1-3 times each from 2 different synthesis (non-inhibitory analogs). Receptor saturation experiments were similarly performed with increasing concentrations of ^125 I-NGF ligand and a constant dose of inhibitor.
To determine the mechanism of biological antagonistic activity by the cyclic analogs, ^125 I-NGF binding measurements were performed with cell lines expressing both p75 and trkA receptors (PC12 cells and R7 transfectants) or only trkA receptors (E25 transfectants) (Table III). Analogs were used at a concentration of ^~ 40 μM.
as §6, §7

NGF biological activity = conditions: Longo et al. 1990; cited from earlier work
[6] = biological target: T4, surface trkA receptors on E25 cells (Homo sapiens, UniProt P04629); assay: trkA receptor internalization in E25 cells (FACScan); assay type: cell-based; conditions: 10 μM, 30 min, 37° C. permissive vs 4° C. 0.05% sodium azide
T4 construct: expressed in transfected cells; host or cells: NIH-3T3 mouse fibroblasts (E25), from Dr. Mariano Barbacid; Jing et al. 1992
From the text: Expression of surface trkA receptors was quantified by FACScan analysis.
FIG. 4A illustrates FACScan profiles using an anti-trkA specific monoclonal antibody versus control mouse IgG.
FIG. 4B is a graph of the analysis of the % reduction of cell surface mean fluorescence channel (MFC, using the Lysis (B.D.) software) after receptor internalization.

T2 sequence (P04629 33-796): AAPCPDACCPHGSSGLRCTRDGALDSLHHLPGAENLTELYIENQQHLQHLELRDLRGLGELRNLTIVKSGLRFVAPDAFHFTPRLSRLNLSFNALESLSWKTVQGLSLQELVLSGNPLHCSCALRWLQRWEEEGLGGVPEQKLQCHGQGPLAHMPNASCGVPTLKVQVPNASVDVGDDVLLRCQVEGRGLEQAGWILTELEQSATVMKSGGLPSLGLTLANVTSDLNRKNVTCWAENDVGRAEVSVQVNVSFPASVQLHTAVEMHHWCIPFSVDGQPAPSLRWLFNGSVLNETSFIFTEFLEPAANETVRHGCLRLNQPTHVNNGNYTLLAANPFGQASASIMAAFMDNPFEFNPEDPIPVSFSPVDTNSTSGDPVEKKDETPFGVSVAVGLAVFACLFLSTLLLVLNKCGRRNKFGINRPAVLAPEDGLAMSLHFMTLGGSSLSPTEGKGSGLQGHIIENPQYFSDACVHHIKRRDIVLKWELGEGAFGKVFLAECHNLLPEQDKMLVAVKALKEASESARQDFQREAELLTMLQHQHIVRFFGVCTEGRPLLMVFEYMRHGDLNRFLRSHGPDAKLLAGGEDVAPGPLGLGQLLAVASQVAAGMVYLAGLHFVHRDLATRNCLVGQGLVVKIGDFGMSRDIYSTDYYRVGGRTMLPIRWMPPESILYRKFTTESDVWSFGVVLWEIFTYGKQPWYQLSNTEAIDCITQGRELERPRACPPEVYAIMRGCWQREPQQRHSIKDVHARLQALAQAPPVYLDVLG
T1 sequence (P04629 33-790 isoform P04629-2 limits assumed): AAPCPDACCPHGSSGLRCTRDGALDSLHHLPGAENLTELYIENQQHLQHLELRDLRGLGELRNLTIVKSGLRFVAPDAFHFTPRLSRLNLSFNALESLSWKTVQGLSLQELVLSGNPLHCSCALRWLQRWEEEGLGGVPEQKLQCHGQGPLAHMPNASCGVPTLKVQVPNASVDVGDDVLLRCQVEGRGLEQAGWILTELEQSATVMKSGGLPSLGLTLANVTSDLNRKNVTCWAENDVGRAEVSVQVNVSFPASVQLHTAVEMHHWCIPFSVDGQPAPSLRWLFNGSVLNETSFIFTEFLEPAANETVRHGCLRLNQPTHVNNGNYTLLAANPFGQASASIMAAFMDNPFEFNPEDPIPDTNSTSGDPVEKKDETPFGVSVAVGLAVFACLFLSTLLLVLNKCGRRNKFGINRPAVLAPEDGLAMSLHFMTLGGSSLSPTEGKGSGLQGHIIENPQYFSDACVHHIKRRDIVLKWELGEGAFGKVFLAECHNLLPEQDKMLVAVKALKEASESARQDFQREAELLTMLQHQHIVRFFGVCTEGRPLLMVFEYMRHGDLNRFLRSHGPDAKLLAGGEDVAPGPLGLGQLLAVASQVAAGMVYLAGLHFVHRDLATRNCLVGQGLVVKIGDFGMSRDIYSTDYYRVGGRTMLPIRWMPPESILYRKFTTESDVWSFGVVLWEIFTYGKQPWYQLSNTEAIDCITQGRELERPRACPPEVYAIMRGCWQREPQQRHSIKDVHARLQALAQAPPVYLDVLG
T3 sequence (P35739 33-799): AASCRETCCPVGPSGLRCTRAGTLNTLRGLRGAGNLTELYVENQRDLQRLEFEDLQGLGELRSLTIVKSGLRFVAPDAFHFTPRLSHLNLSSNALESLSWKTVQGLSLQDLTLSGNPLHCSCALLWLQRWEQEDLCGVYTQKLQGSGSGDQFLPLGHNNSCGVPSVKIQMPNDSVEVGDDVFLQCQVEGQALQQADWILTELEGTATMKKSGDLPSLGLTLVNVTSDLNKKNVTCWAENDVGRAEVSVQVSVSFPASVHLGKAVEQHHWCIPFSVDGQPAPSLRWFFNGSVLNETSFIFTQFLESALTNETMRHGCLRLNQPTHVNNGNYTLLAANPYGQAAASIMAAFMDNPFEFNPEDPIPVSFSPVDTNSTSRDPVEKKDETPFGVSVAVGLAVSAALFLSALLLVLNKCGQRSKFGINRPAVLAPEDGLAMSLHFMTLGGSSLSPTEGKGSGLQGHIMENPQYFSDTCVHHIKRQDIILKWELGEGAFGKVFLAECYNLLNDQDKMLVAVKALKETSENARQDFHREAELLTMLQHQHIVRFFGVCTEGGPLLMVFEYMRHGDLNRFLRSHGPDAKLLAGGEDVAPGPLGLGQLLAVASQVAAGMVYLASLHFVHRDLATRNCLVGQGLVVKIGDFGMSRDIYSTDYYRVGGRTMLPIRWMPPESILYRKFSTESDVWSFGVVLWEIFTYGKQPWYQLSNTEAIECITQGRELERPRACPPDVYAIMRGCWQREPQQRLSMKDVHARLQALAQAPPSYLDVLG
T4 sequence (P04629 33-790 isoform P04629-2 limits assumed): as the sequence (P04629 33-790 isoform P04629-2 limits assumed) above

Fmoc-X C I N N S V C X [C(44-48)]
effect on bFGF mediated PC12 neurite outgrowth (in words) [1]: did not affect | effect on NGF mediated PC12 neurite outgrowth (in words) [2]: significantly inhibited; also recorded: effective in inhibiting biological assays in PC12 cells | INHIBITION OF NEURITE OUTGROWTH (1) [2]: +++ (equivalent to 6.25 ng/ml NGF) | effect on 125I-NGF binding to E25 cells (in words) [3]: did not inhibit; also recorded: without being effective at all in binding assays in E25 cells | % INHIBITION of 125I-NGF binding, E25 (trkA) [3]: -12.5 ± 5.4%

Fmoc-X C T A I K G K E C X [C(29-35ΔD30A)]
cell death / necrosis after culture with the compounds (PC12 cells): did cause necrosis

Fmoc-X C T D E K Q C X [C(92-96)]
effect on bFGF mediated PC12 neurite outgrowth (in words) [1]: did not affect | IC50 [4]: 23.5 ± 16 µM | % INHIBITION of 125I-NGF binding, R7 (trkA-p75) ([5]; 40 µM): 51.1% and 51.1 ± 0.7% | effect on NGF mediated PC12 neurite outgrowth (in words) [2]: significantly inhibited | nature of inhibition in saturation analysis ([3]; 45 μM analog, 125I-NGF 0-1.13 nM, E25 cells): competitive nature | % INHIBITION of 125I-NGF binding, E25 (trkA) ([3]; 40 µM): 71.3% and 71.3 ± 13.5% | % INHIBITION of 125I-NGF binding, PC12 (trkA-p75) (PC12 (trkA-p75); analog ~40 μM): 86.4 ± 10.4%

Fmoc-X C I K G K E C X [C(31-35)]
INHIBITION OF NEURITE OUTGROWTH (1) [2]: ++ (equivalent to 12.5 ng/ml NGF)

N N S F V I N V (NNSFVINV) [R(42-49), randomized 42-49 control]
INHIBITION OF NEURITE OUTGROWTH (1) [2]: + (equivalent to 25 ng/ml NGF)

X C A S N P V E C [C(60-65)]
INHIBITION OF NEURITE OUTGROWTH (1) [2]: ++ (equivalent to 12.5 ng/ml NGF)

Fmoc-X C S N P V E S C X [C(61-66)]
cell death / necrosis after culture with the compounds (PC12 cells): did cause necrosis

Fmoc-X C N I N N S V C X [C(43-48)]
effect on bFGF mediated PC12 neurite outgrowth (in words) [1]: did not affect; also recorded: bFGF was not affected | % INHIBITION of 125I-NGF binding, R7 (trkA-p75) [5]: 5.0% | effect on NGF mediated PC12 neurite outgrowth (in words) [2]: significantly inhibited; also recorded: effective in inhibiting biological assays in PC12 cells | INHIBITION OF NEURITE OUTGROWTH (1) [2]: +++ (equivalent to 6.25 ng/ml NGF) | effect on 125I-NGF binding to E25 cells (in words) [3]: did not inhibit; also recorded: without being effective at all in binding assays in E25 cells | % INHIBITION of 125I-NGF binding, E25 (trkA) [3]: -2.7 ± 8.5%

A T D I K G K E V (ATDIKGKEV) [L(28-36), linear 28-36 control]
% INHIBITION of 125I-NGF binding, R7 (trkA-p75) [5]: -11.3% | % INHIBITION of 125I-NGF binding, E25 (trkA) [3]: 6.4 ± 12.4% | % INHIBITION of 125I-NGF binding, PC12 (trkA-p75) (PC12 (trkA-p75); analog ~40 μM): 5.0%

Fmoc-X C A S N P V E S C X [C(60-66)]
INHIBITION OF NEURITE OUTGROWTH (1) [2]: ++ (equivalent to 12.5 ng/ml NGF)

R A S N P V E S G (RASNPVESG) [L(59-67), linear 59-67 control]
INHIBITION OF NEURITE OUTGROWTH (1) [2]: + (equivalent to 25 ng/ml NGF) | % INHIBITION of 125I-NGF binding, E25 (trkA) [3]: -9.5 ± 7.5%

Fmoc-X C D I K G K E C X [C(30-35)]
effect on bFGF mediated PC12 neurite outgrowth (in words) [1]: did not affect | effect on 125I-NGF binding to R7 cells (in words) [5]: did not affect NGF binding to R7 cells | % INHIBITION of 125I-NGF binding, R7 (trkA-p75) [5]: 0.44 ± 0.6% | effect on NGF mediated PC12 neurite outgrowth (in words) [2]: did not affect | effect on 125I-NGF binding to E25 cells (in words) [3]: inhibited NGF binding to E25 cells | % INHIBITION of 125I-NGF binding, E25 (trkA) [3]: 51.1 ± 0.7%

Fmoc-X C K G K E C X [C(32-35)]
effect on 125I-NGF binding to R7 cells (in words) [5]: did not affect NGF binding to R7 cells | % INHIBITION of 125I-NGF binding, R7 (trkA-p75) [5]: -4.5 ± 6.5% | INHIBITION OF NEURITE OUTGROWTH (1) [2]: ++ (equivalent to 12.5 ng/ml NGF) | effect on 125I-NGF binding to E25 cells (in words) [3]: inhibited NGF binding to E25 cells | % INHIBITION of 125I-NGF binding, E25 (trkA) [3]: 30.7 ± 10.5% | % INHIBITION of 125I-NGF binding, PC12 (trkA-p75) (PC12 (trkA-p75); analog ~40 μM): 9.0%

peptide with sequences from NGF residues 23-35: prior-art linear peptide of Longo et al. with sequences from NGF residues 23-35 (GDKTTATDIKGKE; UniProt P01138 144-156, looked up, fragment)
concentration of peptide at which inhibition of NGF biological activity occurred (NGF biological activity): 2 mM

Fmoc-X C T D E K Q A C X [C(92-97)]
effect on bFGF mediated PC12 neurite outgrowth (in words) [1]: did not affect | % INHIBITION of 125I-NGF binding, R7 (trkA-p75) ([5]; 40 µM): 24.3% and 24.3 ± 9.2% | disappearance of surface trkA receptors (receptor internalization) [6]: induced the disappearance of surface trkA receptors at the permissive conditions only | effect on NGF mediated PC12 neurite outgrowth (in words) [2]: significantly inhibited | INHIBITION OF NEURITE OUTGROWTH (1) [2]: +++ (equivalent to 6.25 ng/ml NGF) | % INHIBITION of 125I-NGF binding, E25 (trkA) ([3]; 40 µM): 64.9% and 64.9 ± 12.4%

Fmoc-X C N I N N S C X [C(43-47)]
INHIBITION OF NEURITE OUTGROWTH (1) [2]: + (equivalent to 25 ng/ml NGF)

T T D E K Q A A W (TTDEKQAAW) [L(91-99), linear 91-99 control]
% INHIBITION of 125I-NGF binding, R7 (trkA-p75) [5]: 3.8 ± 1.0% | INHIBITION OF NEURITE OUTGROWTH (1) [2]: + (equivalent to 25 ng/ml NGF) | effect on 125I-NGF binding to E25 cells (in words) [3]: None of the other cyclic, linear or randomized analogs had significant effects | % INHIBITION of 125I-NGF binding, E25 (trkA) [3]: 2.1 ± 8.5%

Nerve Growth Factor [NGF]
% INHIBITION of 125I-NGF binding, PC12 (trkA-p75) (PC12 (trkA-p75); 0.1 uM unlabeled NGF): 69.5 ± 4.5%

A N V S R S P E G (ANVSRSPEG) [R(59-67), randomized 59-67 control]
INHIBITION OF NEURITE OUTGROWTH (1) [2]: + (equivalent to 25 ng/ml NGF)

V N I N N S V F (VNINNSVF) [L(42-49), linear 42-49 control]
% INHIBITION of 125I-NGF binding, R7 (trkA-p75) [5]: 8.0% | % INHIBITION of 125I-NGF binding, E25 (trkA) [3]: -16.0 ± 15.1%
